These results are taken from a melting point compilation (Tetko et al.; mined from patent text by program, amines drawn as free bases though some values may be those of a salt).

Molecules are shown by their SMILES.

For the compound `O=C1CC(Cc2ccc(Cl)cc2Cl)CN1` (configuration not stated), the melting point lay in the range of 85 to 86 °C. In the case of `CN(C)C1(c2cccc(F)c2)CCC(CC(=O)NCCCc2ccccc2)CC1` (configuration not stated) it was 119 to 122 °C; in that of `CN(c1ncccc1[N+](=O)[O-])C1CCNCC1`, 116 to 117 °C. Under `CCOC(=O)c1c(NCCC(=O)c2ccccc2)c2c(Cl)cc(Cl)cc2n1C(=O)OC(C)(C)C` stands 130 to 131 °C; under `CCCCCCCc1ccc(C(=O)Nc2ccc3oc(Nc4ccc(CC)cc4)nc3c2)cc1`, 245 to 246 °C; under `CN1CCC(N(CCN2CCCC2)S(=O)(=O)c2ccc(Nc3nccc(Nc4ccc(F)cc4)n3)cc2)CC1`, 250 °C.

Consider `COC(=O)c1nc2cccc(C)c2c(O)c1C(=O)OC`, for which the melting point fell in the range of 167 to 168 °C. Regarding `COc1cccc(N2CC(=O)N(c3ccc(S(N)(=O)=O)cc3Cl)C2)c1`, the melting point is 200 to 203 °C. In the case of `CN(C)c1cc2c(C(F)(F)F)cccc2s1` it was 70 to 73 °C; in that of `N#CC1CN1C(=O)NC(=O)COc1ccccc1` (configuration not stated), 134 to 136 °C; in that of `C=CCc1cccc2c(=O)cc(-c3ccccc3F)oc12`, 78 to 81 °C.

Regarding `CN1CCC(N2C(=O)CN=C(c3ccccc3F)c3cc(Cl)ccc32)CC1`, the melting point was in the range of 145 to 146 °C.

Consider `COc1ccc(C=Cc2oc3ccc(C#N)cc3c2C(C)=O)cc1`, for which the melting point fell in the range of 190 to 191 °C. `COc1cccc(CCc2c(CC(=O)NC(C)C)ccc(OC)c2OC)c1` showed a melting point of 138 to 140 °C. Under `O=C(CCCC(=O)N1C(=O)OC[C@@H]1c1ccccc1)c1ccc(F)cc1` stands 91 °C; under `O=C(O)CCC(=O)N1C2CCC(C2)C1C(=O)O` (configuration not stated), 132 to 135 °C; under `CCc1cc(C)cc(CC)c1C1C(=O)C2CC(COc3nc(C)c(C)s3)CC2C1=O` (configuration not stated), 73 to 74 °C.

`Cc1cc(C)nc(N2CC=C(N)N2)n1` registered a melting point of 205 °C. On to `Cc1ccc(-c2cc(C(F)(F)F)n3ncc(-c4cccnc4)c3n2)cc1C(F)(F)F`, for which the melting point worked out at 182 °C. Compound `CC1=C(C#N)S(=O)(=O)c2cc(F)cc(F)c2N1` gave a melting point of 289 to 290 °C.

`CCCNC(=S)NS(=O)(=O)c1cc2c(cc1OC)OCC(NC(=O)c1cc(F)ccc1OC)C2` (configuration not stated) gave a melting point of 172 to 173 °C. In the case of `O=C(c1ccc2ccccc2c1)N1CC[C@H](NCc2ccnc3ccccc23)C[C@H]1Cc1ccccc1` (relative stereo) it was 111 to 112 °C; in that of `COc1cc(Cl)ccc1N=c1scc(-c2ccc(Cl)c(S(=O)(=O)N(C)C)c2)n1C`, 148 to 150 °C. `OCc1ccc(I)c(Cl)c1`: the melting point lay within 80 to 82 °C.

The compound `CS(=O)(=O)c1ccc(C(CC2CCCC2)C(=O)O)cc1Cl` (configuration not stated) yielded a melting point of 124 to 126 °C. Under `CCCCCCCCCCn1c(=O)n(C2OC(CO)C(O)C2O)c2nc(N)[nH]c(=O)c21` (configuration not stated) stands 174 to 176 °C.

In turn, `OCCC#Cc1ccc(-c2ccc(F)cc2)cc1` registered a melting point of 134 °C. Under `CC1(C(=O)O)CCC(=O)c2cc(C3CCCCC3)c(Cl)cc21` (configuration not stated) stands 227 to 228 °C. Under `Cc1cc(Cl)c(C)c(C(=O)O)c1` stands 168 to 170 °C; under `COC(=O)c1c(-c2cccc([N+](=O)[O-])c2)cc(-c2ccccc2)nc1C`, 127 to 129 °C; under `COc1cc2ncnc(Nc3nccc4ccccc34)c2cc1OC`, 198 to 199 °C.

Regarding `Cc1sc(S(N)(=O)=O)cc1NC(=O)c1cnn2c(C(F)(F)F)cc(-c3ccc(C(F)(F)F)cc3)nc12`, the melting point was 297 °C. Compound `CCOC(=O)CCc1cn(C)nc1O` registered a melting point of 89 to 91 °C. On to `O=C(O)Cc1cc(C(=O)Cc2c(F)cccc2Cl)ccc1O`, for which the melting point amounted to 240 °C. `CCCNCC(=O)N1c2ccccc2N2CCc3cccc(c32)C1C` (configuration not stated) registered a melting point of 113 to 118 °C. Under `CNc1cccc(N)c1C(N)=O` stands 130 to 132 °C; under `CNC(=O)c1cc2nc(C(F)(F)F)ccc2c(OC)c1NC(=O)c1cc(C(F)(F)F)nn1-c1ncccc1Cl`, 209 to 211 °C. Take `OC1c2ccccc2OC12CCCCCC2` (configuration not stated): the melting point was 104 to 107 °C. In the case of `N#Cc1cscc1Sc1ccccc1` it was 32 to 34 °C; in that of `O=C(Oc1n[nH]c(=O)c2nc3cc(Cl)ccc3c(O)c12)c1ccccc1`, 348 to 353 °C; in that of `CS(=O)(=O)Nc1ccc(CCN2CCCCC2)cc1`, 123 to 124 °C. Compound `CCCCSc1nc(CCC)n(Cc2ccc(-c3ccccc3S(=O)(=O)NC(=O)NCc3ccccc3)cc2)c1C(=O)C(=O)O` gave a melting point of 192 °C. In the case of `CCc1cccc2[nH]c(=O)oc(=O)c12` it was 202 to 204 °C. For `CC(CO)c1ccc(-c2ccccc2)c(F)c1` (configuration not stated), the melting point was 61 to 63 °C. `COc1ccc(C2Nc3cc(OC)c(OC)cc3C(C)=[N+]2[O-])cc1` (configuration not stated): the melting point was in the range of 161 to 163 °C. In turn, `O=C(O)c1cc(F)c(-n2cccc2)cc1F` showed a melting point of 196 to 198 °C. Under `CC(C)CC(COCC(N)=O)NC(=O)C1CCCN1C(=O)OCc1ccccc1` (configuration not stated) stands 146 to 148 °C; under `CC(C)(C)OC(=O)Nc1cc(N2CCC(OCCOC3CCCCO3)CC2)c(-c2ccc(F)cc2)cc1NC(=O)CC(=O)c1cccc(-n2ccnc2)c1` (racemic), 57 to 58 °C. For the compound `CC12CC(c3ccc(OS(=O)(=O)C(F)(F)F)cc3)C3C4CCC5(CC4=CCC3C1CCC2=O)OCCO5` (configuration not stated), the melting point fell in the range of 208 to 210 °C.

Take `COc1cccc(OC)c1-c1ccc(C[C@H](NC(=O)c2c(Cl)cc(-c3ccn[nH]3)cc2Cl)C(=O)O)cc1`: the melting point amounted to 156 °C. `COC(=O)/C(C)=C1\CN2C(=O)CC2O1` (configuration not stated) came in with a melting point of 90 to 91 °C. Regarding `Cc1nc2cnccc2n1-c1ccc(OCc2cccc(C(=O)O)c2)cc1`, the melting point lay within 255 to 258 °C.

As for `Cn1ncc(C(=O)N2CCOCC2)c1C(=O)Nc1cc2nc(-c3ccccc3)nn2cc1F`, the melting point lay in the range of 224 to 225 °C. For the compound `Cc1nccn1-c1nc(-c2ccc(Cl)cc2)c(CCC(=O)OCc2ccccc2)o1`, the melting point was in the range of 71 to 72 °C. Compound `COCC(=O)OCn1cc(C#N)c(-c2cccc(Cl)c2Cl)c1` gave a melting point of 72 to 75 °C. In the case of `CCCCc1nn(-c2cc([N+](=O)[O-])ccc2Cl)c(C(=O)O)c1Cc1ccc(Br)cc1F` it was over 55 °C. Under `OCCc1c(-c2ccccc2)[nH]c2nccnc12` stands 201 to 202 °C.

`Cc1ccc(-c2ncc(C)cn2)cc1` had a melting point of 122 to 123 °C. On to `CCCN(CCC)S(=O)(=O)c1cc(OC)c(OC)cc1C=Cc1nc2c(c(=O)n(CCC)c(=O)n2CCC)n1C`, for which the melting point worked out at 208 °C. For the compound `NC(=NCC(F)(F)F)Nc1ccnc(SCCCC2=NCCN2)n1`, the melting point lay in the range of 184 to 186 °C. With `CCOC(=O)c1nc(-c2cccc3ccccc23)[nH]c1-c1ccc(C)cc1`, the melting point was 190 to 192 °C. For `O=c1ncc(I)cn1COCc1ccc(Cl)cc1`, the melting point is 168 °C. Under `CN(C(=N)Nc1cccc2ccccc12)c1cccc2ccccc12` stands 249 to 250 °C; under `O=C(NC1C(=O)N(CC23CC4CC(CC(C4)C2)C3)c2ccccc2N(c2ccccc2)C1=O)Oc1ccccc1` (configuration not stated), 205 to 207 °C; under `C=CCN1C(=O)NC(C)CC1OCC` (configuration not stated), 72 to 76 °C. Under `CCCNC(=O)C(C)(C)Cc1ccc2c(c1)c(Cc1ccc(C(=O)NS(=O)(=O)c3ccccc3C)cc1OC)cn2CCC` stands 102 to 112 °C; under `COc1ccc2c(c1)C(C)CC1C2CCC2(C)C(=O)CCC12` (configuration not stated), 108 to 109 °C.

The compound `CCN(CC)CCOc1ccc(Nc2ncc3c(n2)N(C)C(=O)N(c2ccccc2Br)C3)cc1` showed a melting point of 144 °C.

The compound `COc1ccc(N2C(=O)C(C)N(c3ccc(Oc4ccc(O)cc4)cc3)C2=S)cc1` (configuration not stated) came in with a melting point of 196 to 198 °C. In the case of `CC(=O)SC(CC(=O)c1ccc(Oc2cccc(Cl)c2)cc1)C(=O)O` (configuration not stated) it was 122 to 125 °C; in that of `O=c1nc(N2CCc3ccccc3C2)sc2ncccc12`, 159 to 160 °C; in that of `CC(C)c1c(C=O)c(-c2ccc(F)cc2)n2ccccc12`, 97 to 98 °C. Under `CC(=O)NS(=O)(=O)c1cc(C(=O)O)cc([N+](=O)[O-])c1Oc1ccccc1` stands 270 to 271 °C; under `O=S(=O)(Cc1ccccc1)c1ncc(Br)cn1`, 142 to 143 °C; under `Cc1c2c(c(C(O)c3ccc(C(C)C)cc3)c(C)c1NC(=O)OC(C)(C)C)OC(C)C2` (configuration not stated), 141 to 142 °C. Under `CCCCCCCCCC(=O)C1C(=O)CC(C)OC1=O` (configuration not stated) stands 62 to 63 °C. As to `CS(=O)(=O)c1ccc(-n2nc(C(F)(F)F)cc2-c2ccc([N+](=O)[O-])cc2)cc1`, the melting point was in the range of 203 to 205 °C. In the case of `C[C@H](CSC(=O)c1ccccc1)C(=O)N1C(=O)N(Cc2ccccc2)C[C@H]1C(=O)OC(C)(C)C` it was 104 to 106 °C; in that of `CCN(CC)CCNC(=S)N(CCS(=O)(=O)c1ccccc1)C(C)C`, 81.5 to 82.5 °C. Under `COc1ccc(C=CC(=O)O)cc1C=O` stands 223 to 225 °C; under `COc1ccc(Cn2c(=O)c(C(=O)NC3CCCCC3)c(O)c3cc(F)cnc32)cc1`, 176 °C.

In turn, `CCOC(=O)c1[nH]c2ccccc2c1-c1ccc([N+](=O)[O-])cc1` returned a melting point of 218 to 220 °C. Regarding `Nc1ccc(-c2cc(OCC(=O)N3CCOCC3)c3ccccc3n2)cc1`, the melting point came to 174 °C. Regarding `O=C1N(Cc2ccccc2)Cc2cccnc2N1c1cccc([N+](=O)[O-])c1`, the melting point fell in the range of 144 to 145 °C.

`OC1(c2ccc(Cl)cc2)CCN(CCCOc2ccc(F)cc2)CC1` yielded a melting point of 134 to 135 °C.

`Cc1cc(C)c2c(c1C)OC(C)(CC(=O)O)C2` (configuration not stated) gave a melting point of 139 to 140 °C. In the case of `Cc1cccc(-c2nc(C(C)C)[nH]c2-c2ccc(F)c(-c3cnn(C)c3)c2)n1` it was 77 to 97 °C.

The melting point is the temperature, or range, at which the solid turns liquid.
